Test systems include COLO 205; UACC-257; OVCAR-4; SK-MEL-28; M14; RXF 393; CCRF-CEM; A498; HOP-62; BT-549; SNB-19; HT-29; OVCAR-8; HOP-92; HCT-15; IGROV-1; K562; MOLT-4; SK-MEL-2; KM12.
Experiment in all cases: inhibition of tumour cell growth, NCI panel, 48 h

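Exposure lasted 48 hours, with cells grown in 96-well plates and compounds tested at five concentrations. GI50 marks 50% less growth.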 Active and inactive are the calls of the source. Rule as the data show it: active = GI50 up to about 1.1 µM and inactive = higher.

Regarding `CCCCCCCCCCCCCCC(C(=O)[O-])[n+]1ccccc1` (stereo not given), the GI50 was > 100 µM (inactive) in the experiment with COLO 205; > 100 µM (inactive) with UACC-257; > 100 µM (inactive) in the experiment on OVCAR-4; > 100 µM (inactive) in the experiment with SK-MEL-28; > 100 µM (inactive) in the experiment with M14; 20.4 µM (inactive) with RXF 393. For the same compound, the GI50 with CCRF-CEM, with A498, in the experiment on HOP-62, in the experiment on BT-549, with SNB-19 and with HT-29 was > 100 µM (inactive) each time. The GI50 is 98.6 µM (inactive) in the experiment with OVCAR-8; > 100 µM (inactive) in the experiment on HOP-92; more than 100 µM in the experiment with HCT-15; > 100 µM (inactive) in the experiment on IGROV-1; > 100 µM (inactive) in the experiment on K562; > 100 µM (inactive) in the experiment on MOLT-4. In addition, the GI50 in the experiment with SK-MEL-2 and in the experiment on KM12 was > 100 µM (inactive) in each case.
As for `Cc1c([N+](=O)[O-])oc2ccc3ccccc3c12`, the GI50 is 6.79 µM (inactive) with COLO 205; 78 µM (inactive) in the experiment on UACC-257; 47.5 µM (inactive) with OVCAR-4; > 100 µM (inactive) with SK-MEL-28; 21.5 µM (inactive) in the experiment on M14; 21.4 µM (inactive) in the experiment with RXF 393. Further, the GI50 with CCRF-CEM is 6.32 µM (inactive); with A498, 22.8 µM (inactive); in the experiment with HOP-62, > 100 µM (inactive); in the experiment with BT-549, > 100 µM (inactive); with SNB-19 it was > 100 µM (inactive); in the experiment on HT-29 it was 14.6 µM (inactive). For the same compound, the GI50 with OVCAR-8 is 26.1 µM (inactive); with HOP-92, > 100 µM (inactive); in the experiment with HCT-15 it was 19 µM; with IGROV-1, 12.1 µM (inactive); with K562, 18.9 µM (inactive); in the experiment on MOLT-4 it was 2.58 µM (inactive). In addition, the GI50 is > 100 µM (inactive) in the experiment on SK-MEL-2 and 29.9 µM (inactive) with KM12.
Regarding `Clc1ccccc1/C=C/c1nsc(/C=C/c2ccccc2Cl)n1`, the GI50 in the experiment on COLO 205 is 47.4 µM (inactive); in the experiment on UACC-257 it was 26.5 µM (inactive); in the experiment on OVCAR-4 it was 81.7 µM (inactive); in the experiment on SK-MEL-28, > 100 µM (inactive); in the experiment with M14 it was 70.6 µM (inactive); in the experiment with RXF 393, > 100 µM (inactive). Moreover, the GI50 was 22.7 µM (inactive) in the experiment with CCRF-CEM; > 100 µM (inactive) in the experiment with A498; 36.6 µM (inactive) in the experiment on HOP-62; 92 µM (inactive) in the experiment on BT-549; > 100 µM (inactive) with SNB-19; 35.2 µM (inactive) with HT-29. The GI50 with OVCAR-8 was 94 µM (inactive); in the experiment on HOP-92 it was > 100 µM (inactive); in the experiment with HCT-15, 38 µM; with IGROV-1, 84.1 µM (inactive); in the experiment with K562, 21.8 µM (inactive); in the experiment with MOLT-4, 33.5 µM (inactive). The figures for the GI50 with SK-MEL-2 and in the experiment on KM12 were > 100 µM (inactive) and 88.9 µM (inactive), respectively.
As to `CN(CCNC(=O)c1n[nH]c2c1ccc1ccccc12)CCNC(=O)c1n[nH]c2c1ccc1ccccc12`, the GI50 was 1.39 µM (inactive) in the experiment on COLO 205; 24.4 µM (inactive) in the experiment with UACC-257; 1.82 µM (inactive) with OVCAR-4; 1.93 µM (inactive) with SK-MEL-28; 1.82 µM (inactive) in the experiment on M14; 1.94 µM (inactive) in the experiment with RXF 393. Also, the GI50 was 2.2 µM (inactive) with CCRF-CEM; 7.28 µM (inactive) in the experiment with A498; 2.11 µM (inactive) in the experiment on HOP-62; 20.2 µM (inactive) with BT-549; 1.89 µM (inactive) with SNB-19; 2.01 µM (inactive) in the experiment on HT-29. Besides, the GI50 with OVCAR-8 was 2.05 µM (inactive); in the experiment with HOP-92 it was 3.29 µM (inactive); with HCT-15 it was 13.7 µM; with IGROV-1, 1.77 µM (inactive); with K562, 2.26 µM (inactive); in the experiment on MOLT-4, 2.77 µM (inactive). For the same compound, the GI50 was 8.2 µM (inactive) in the experiment with SK-MEL-2 and 2.14 µM (inactive) in the experiment with KM12.
For the compound `CC(=O)Nc1ccc2c3c(cc(O)c2c1)N(C(=O)CCCCCCC(=O)Nc1ccc2c4c(cc(O)c2c1)N(C(=O)OC(C)(C)C)CC4CCl)CC3CCl` (stereo not given), the GI50 with COLO 205 is 0.103 µM (active); in the experiment with UACC-257, 0.148 µM (active); with OVCAR-4, 0.218 µM (active); with SK-MEL-28, 0.279 µM (active); with M14 it was 0.0791 µM (active); in the experiment with RXF 393, 0.016 µM (active). Further, the GI50 with CCRF-CEM was < 0.01 µM (active); in the experiment on A498, 0.0244 µM (active); with HOP-62 it was 0.091 µM (active); with BT-549, 0.146 µM (active); with SNB-19 it was 0.046 µM (active); in the experiment on HT-29, 0.155 µM (active). The GI50 is 0.0973 µM (active) in the experiment on OVCAR-8; 0.158 µM (active) in the experiment with HOP-92; 2.64 µM with HCT-15; 0.0822 µM (active) in the experiment with IGROV-1; 0.117 µM (active) with K562; < 0.01 µM (active) in the experiment with MOLT-4. Moreover, the GI50 with SK-MEL-2 was 0.0423 µM (active); in the experiment with KM12, 0.169 µM (active).
`CCOC(=O)c1c2c(n(C)c1-c1ccccc1)C(=O)C(C)=CC2=O`: the GI50 with COLO 205 is 1.57 µM (inactive); in the experiment on UACC-257 it was 2.61 µM (inactive); in the experiment on OVCAR-4, 7.05 µM (inactive); with SK-MEL-28 it was 13.9 µM (inactive); in the experiment on M14, 3.66 µM (inactive); in the experiment on RXF 393 it was 8.97 µM (inactive). For the same compound, the GI50 in the experiment on CCRF-CEM was 2.51 µM (inactive); with A498 it was 18.2 µM (inactive); in the experiment on HOP-62, 17.3 µM (inactive); in the experiment on BT-549, 13.2 µM (inactive); in the experiment on SNB-19 it was 13.5 µM (inactive); with HT-29, 5.79 µM (inactive). The GI50 was 5.7 µM (inactive) in the experiment on OVCAR-8; 2.07 µM (inactive) in the experiment with HOP-92; 3.36 µM in the experiment with HCT-15; 5.46 µM (inactive) in the experiment with IGROV-1; 3.44 µM (inactive) in the experiment on K562; 2.55 µM (inactive) in the experiment on MOLT-4. Besides, the GI50 with SK-MEL-2 is 13.6 µM (inactive); with KM12, 6.04 µM (inactive).
On to `CC(=O)O[C@H]1CC[C@@]2(C)C(=CC[C@H]3[C@@H]4CC[C@H](c5cc(C(F)(F)F)n(C(C)=O)n5)[C@@]4(C)CC[C@@H]32)C1`, for which the GI50 was 3.62 µM (inactive) in the experiment on COLO 205; 5.52 µM (inactive) in the experiment on UACC-257; 3.31 µM (inactive) with OVCAR-4; 13.6 µM (inactive) in the experiment on SK-MEL-28; 8.51 µM (inactive) in the experiment with M14; 5.68 µM (inactive) in the experiment on RXF 393. The GI50 in the experiment with CCRF-CEM is 2.98 µM (inactive); in the experiment with A498 it was 10.6 µM (inactive); with HOP-62 it was 8.2 µM (inactive); in the experiment on BT-549, 10.7 µM (inactive); in the experiment with SNB-19 it was 11 µM (inactive); in the experiment on HT-29, 4.62 µM (inactive). Besides, the GI50 was 5.57 µM (inactive) with OVCAR-8; 1.22 µM (inactive) in the experiment with HOP-92; 5.64 µM with HCT-15; 3.84 µM (inactive) in the experiment with IGROV-1; 3.35 µM (inactive) in the experiment on K562; 2.47 µM (inactive) in the experiment on MOLT-4. The results for the GI50 with SK-MEL-2 and in the experiment on KM12 were 6.93 µM (inactive) and 8.41 µM (inactive), respectively.

The record behind these values is ChEMBL document CHEMBL1201862, “PubChem BioAssay data set” (2004).
